A short description of series [1]: Cytotoxicity against mouse NIH3T3 cells assessed as reduction in cell proliferation incubated for 48 hrs by CCK-8 assay. The format is toxicity, cell-based. A general note: Tetrazolium assays rely on reduction of a dye to a coloured formazan, in cell work by metabolically active cells.
Series [2] has as its system MCF7. Description: cells. Particulars: Homo sapiens, MCF7, 48 h.
The test system of series [3] is MC-38. Put plainly: cells. Particulars: Mus musculus, MC-38, 48 h.
The test system of series [4] is HepG2. Description: cells. Particulars: Homo sapiens, HepG2, 48 h.
The test system of series [5] is Hepa 1-6. Description: cells. Particulars: Mus musculus, Hepa1-6, 48 h.
The subject of series [6] is HepG2. Description: Induction of apoptosis in human HepG2 cells assessed as early apoptotic cells at 50 uM incubated for 48 hrs by Annexin V/FITC-PI staining based flow cytometry (reference value: 1.98%). It is filed as functional. A general note: A flow cytometer gives signals particle by particle.
In series [7] the test system is HepG2. Put plainly: Induction of apoptosis in human HepG2 cells assessed as viable cells at 50 uM incubated for 48 hrs by Annexin V/FITC-PI staining based flow cytometry (reference value: 91.15%). It is filed as functional. Particulars: read-out: Activity.
Series [8] deals with HepG2. Put plainly: Induction of apoptosis in human HepG2 cells assessed as viable cells at 5 uM incubated for 48 hrs by Annexin V/FITC-PI staining based flow cytometry (reference value: 91.15%). It is filed as functional. Particulars: read-out: Activity.
Series [9] deals with HepG2. Put plainly: Induction of apoptosis in human HepG2 cells assessed as viable cells at 20 uM incubated for 48 hrs by Annexin V/FITC-PI staining based flow cytometry (reference value: 91.15%). It is filed as functional. Particulars: read-out: Activity.
Series [10] has as its system HepG2. Description: Induction of apoptosis in human HepG2 cells assessed as necrotic cells at 5 uM incubated for 48 hrs by Annexin V/FITC-PI staining based flow cytometry (reference value: […]). It is filed as functional.
In series [11] the test system is HepG2. Put plainly: Induction of apoptosis in human HepG2 cells assessed as early apoptotic cells at 20 uM incubated for 48 hrs by Annexin V/FITC-PI staining based flow cytometry (reference value: 1.98%). It is filed as functional.
Series [12] deals with HepG2. Put plainly: Induction of apoptosis in human HepG2 cells assessed as necrotic cells at 50 uM incubated for 48 hrs by Annexin V/FITC-PI staining based flow cytometry (reference value: […]). It is filed as functional.
A short description of series [13]: Aqueous solubility of compound in phosphate buffer at pH 9.0 by HPLC analysis. The format is physicochemical.
Series [14] concerns HepG2. Description: Induction of apoptosis in human HepG2 cells assessed as late apoptotic cells at 5 uM incubated for 48 hrs by Annexin V/FITC-PI staining based flow cytometry (reference value: 3.32%). The format is functional.
The test system of series [15] is HepG2. Put plainly: Downregulation of SIP level in human HepG2 cells incubated for 48 hrs by SIP competitive ELISA method. The format is functional, cell-based. Particulars: dose 0-60 µM. Background: In an ELISA, binding on a coated surface is turned into a signal by an enzyme label.
Series [16] is described as follows: Aqueous solubility of compound in phosphate buffer at pH 7.4 by HPLC analysis. The format is physicochemical.
Series [17] has as its system HepG2. Put plainly: Induction of apoptosis in human HepG2 cells assessed as late apoptotic cells at 50 uM incubated for 48 hrs by Annexin V/FITC-PI staining based flow cytometry (reference value: 3.32%). The format is functional.
For series [18], the system named is HepG2. Description: Induction of apoptosis in human HepG2 cells assessed as early apoptotic cells at 5 uM incubated for 48 hrs by Annexin V/FITC-PI staining based flow cytometry (reference value: 1.98%). It is filed as functional.
Series [19] has as its system HepG2. Put plainly: Induction of apoptosis in human HepG2 cells assessed as necrotic cells at 20 uM incubated for 48 hrs by Annexin V/FITC-PI staining based flow cytometry (reference value: […]). The format is functional.
For series [20], the system named is Mus musculus. Put plainly: In vivo inhibition SphK2 in female C57BL/6j mouse assessed as decrease in plasma SIP level at 10 to 30 mg/kg, ip measured after 4 hrs by SIP competitive ELISA method. It is filed as functional, organism-based. Particulars: dose 10-30 mg/kg.
The subject of series [21] is HepG2. Put plainly: Upregulation od SPH level in human HepG2 cell incubated for 48 hrs by SPH competitive ELISA method. It is filed as functional, cell-based. Particulars: dose 0-60 µM.
Series [22] deals with HepG2. Put plainly: Induction of cell cycle arrest in human HepG2 cells assessed as accumulation of cell at G2 phase at 0 to 50 uM incubated for 48 hrs by PI staining based flow cytometric analysis. It is filed as functional. Particulars: dose 0-50 µM.
Series [23] is described as follows: Aqueous solubility of compound in phosphate buffer at pH 2.0 by HPLC analysis. It is filed as physicochemical.
For series [24], the system named is HepG2. Put plainly: Inhibition of cell migration in human HepG2 cells assessed as scratch healing incubated for 24 to 48 hrs by wound healing assay. The format is functional, cell-based. Particulars: dose 10-30 µM, time lower 24.0 hrs, time upper […].
Series [25] has as its system HepG2. Description: Induction of apoptosis in human HepG2 cells assessed as late apoptotic cells at 20 uM incubated for 48 hrs by Annexin V/FITC-PI staining based flow cytometry (reference value: 3.32%). The format is functional.
In series [26] the target is T1, Sphingosine kinase 2 (Homo sapiens, UniProt Q9NRA0).
T1 sequence (Q9NRA0 whole entry): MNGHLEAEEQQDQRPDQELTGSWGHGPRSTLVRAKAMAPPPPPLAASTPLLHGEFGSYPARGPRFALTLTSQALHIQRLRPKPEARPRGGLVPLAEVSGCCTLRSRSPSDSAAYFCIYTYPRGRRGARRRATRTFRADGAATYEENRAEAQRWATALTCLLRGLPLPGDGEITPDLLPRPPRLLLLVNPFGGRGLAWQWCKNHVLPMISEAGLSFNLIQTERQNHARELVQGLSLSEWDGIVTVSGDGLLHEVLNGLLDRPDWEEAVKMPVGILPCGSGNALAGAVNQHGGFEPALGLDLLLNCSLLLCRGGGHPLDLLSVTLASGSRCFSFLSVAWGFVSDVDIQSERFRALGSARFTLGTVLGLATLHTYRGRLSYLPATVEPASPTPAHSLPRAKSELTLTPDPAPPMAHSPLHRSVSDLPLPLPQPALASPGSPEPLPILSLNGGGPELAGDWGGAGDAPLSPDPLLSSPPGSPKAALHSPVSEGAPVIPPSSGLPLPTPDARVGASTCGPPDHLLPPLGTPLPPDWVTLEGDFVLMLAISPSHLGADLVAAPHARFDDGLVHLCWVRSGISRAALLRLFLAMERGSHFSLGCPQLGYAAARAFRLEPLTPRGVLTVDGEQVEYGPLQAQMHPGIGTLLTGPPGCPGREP
Put plainly: Inhibition of SphK2 (unknown origin) using sphingosine as substrate incubated for 30 mins in presence of ATP by ADP-Glo assay.

Series [27] concerns the target T1, Sphingosine kinase 2. Description: Inhibition of SphK2 (unknown origin).
The target in series [28] is Sphingosine kinase 1 (Homo sapiens, UniProt Q9NYA1). Description: Inhibition of SphK1 (unknown origin).

For orientation: IC50 means the point on the concentration scale where inhibition reaches its midpoint. One may read the solubility as how much of the substance goes into solution per volume. The low end stands for a poorly soluble substance, the high end for a readily soluble substance. For orientation: Ki means a measure of affinity in units of concentration, obtained from inhibition or displacement. Read a low Ki as tighter binding.

Converted amounts (≈) assume the structure as drawn. The source made the active and inactive calls. No cut-off for these calls is given here.

Sequence of Sphingosine kinase 1 (Q9NYA1 whole entry): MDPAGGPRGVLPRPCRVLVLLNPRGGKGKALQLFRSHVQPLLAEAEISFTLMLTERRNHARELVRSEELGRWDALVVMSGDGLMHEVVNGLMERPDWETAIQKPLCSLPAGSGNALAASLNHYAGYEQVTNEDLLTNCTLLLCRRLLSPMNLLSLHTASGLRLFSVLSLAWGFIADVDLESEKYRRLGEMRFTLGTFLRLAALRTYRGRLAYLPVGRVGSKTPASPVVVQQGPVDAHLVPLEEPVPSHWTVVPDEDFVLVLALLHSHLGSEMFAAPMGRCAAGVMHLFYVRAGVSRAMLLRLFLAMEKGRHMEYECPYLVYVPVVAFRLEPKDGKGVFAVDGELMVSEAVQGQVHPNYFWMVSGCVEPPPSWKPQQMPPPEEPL

As for `NC(=O)[C@@H]1CCCN1C(=O)Cc1ccc(-c2ccc(OCc3ccccc3)nc2)cc1`, the IC50 at 48 h in series [1] is over 100 µM. Further, the IC50 in [2] is over 100 µM; in series [3], over 100 µM; in series [4] it was over 100 µM; in series [5], 66.3 µM.

In the case of `O=C(Cc1ccc(-c2ccc(OCc3ccc(Cl)c(Cl)c3)nc2)cc1)N1CCC[C@H]1CO`, the Activity is 11.1% in series [6]; 6.77% in series [10]; 1.46% in series [11]; 11.19% in series [12]; 6.61% in [14]; “Dose-Dependent Effect” in series [15]. The Activity in [17] is 10.09%; in series [18], 0.93%; in series [19], 4.62%; in [21] it was “Dose-Dependent Effect”; in series [24] it was “Dose-Dependent Effect”; in [25], 11.01%. The viability at 50 µM in [7] amounted to 67.6%. Moreover, in series [8], the viability at 5 µM came to 85.7%. Further, in [9], the viability at 20 µM was 82.9%. The IC50 at 48 h in series [1] was over 100 µM. Besides, the IC50 in series [2] is 14.7 µM; in series [3], 20.9 µM; in [4] it was 25.4 µM; in series [5], 46.1 µM. For the same molecule, the solubility in series [13] was 46.9 µM (≈ 22.1 µg/mL); in [16] it was 197 µM (≈ 92.6 µg/mL); in [23], 6.87 µM (≈ 3.24 µg/mL). For the same molecule, the outcome in series [20] and in series [22] was Active.

Regarding `O=C(Cc1ccc(-c2cnc(OCc3ccc(Cl)cc3)cn2)cc1)N1CCC[C@H]1CO`, in [1], the IC50 at 48 h was over 100 µM. Moreover, the IC50 in series [2] was over 100 µM; in series [3], over 100 µM; in [4], 46.4 µM; in series [5] it was 57.4 µM.

As to `O=C(NCc1ccncc1)C12CC3CC(C1)CC(c1ccc(Cl)cc1)(C3)C2` [ABC-294640], the IC50 at 48 h in [1] is over 100 µM. The IC50 was found to be 33.5 µM in series [2]; 11.4 µM in series [26]; 34.6 µM in series [3]; 25.6 µM in series [4]; 41.9 µM in [5].

`O=C(Cc1ccc(-c2cnc(OCc3ccc(C(F)(F)F)cc3)cn2)cc1)N1CCC[C@H]1CO`: the IC50 at 48 h in [1] was over 100 µM. In addition, the IC50 in series [2] is 32.1 µM; in series [3] it was 36.3 µM; in series [4], 17.6 µM; in [5] it was 26.2 µM. The solubility in series [13] was found to be 60.4 µM (≈ 28.5 µg/mL); in series [16], 164 µM (≈ 77.5 µg/mL); in series [23], 38.6 µM (≈ 18.2 µg/mL). Also, the Activity entry in [15] and in [21] was “Dose-Dependent Effect” in each case.

Turning to `NC(=O)[C@@H]1CCCN1C(=O)Cc1ccc(-c2ccc(OCc3ccc(Cl)c(Cl)c3)nc2)cc1`, the IC50 at 48 h in [1] is over 100 µM. Besides, the IC50 was 32.7 µM in series [2], over 100 µM in [3], 67.9 µM in series [4] and 37.5 µM in series [5].

Regarding `CCCCCOc1ccc2cc(-c3noc([C@@H]4[C@@H](O)CCN4C(=N)N)n3)ccc2c1`, the IC50 in series [26] was determined as 1.5 µM.

In turn, `CS(=O)(=O)c1ccc(-c2sc(NS(=O)(=O)c3ccc(Br)cc3)nc2-c2ccccc2)cc1` gave an IC50 in series [27] of over 10 µM.

Turning to `O=C(Cc1ccc(-c2ccc(OCc3ccc(Cl)c(Cl)c3)nc2)cc1)N1CCC(O)CC1`, the IC50 at 48 h in series [1] is over 100 µM. Further, the IC50 in series [2] is 36.3 µM; in [3], 16.4 µM; in series [4] it was over 100 µM; in series [5], 59.2 µM. The solubility worked out at 59.6 µM (≈ 28.1 µg/mL) in series [13], 183 µM (≈ 86.5 µg/mL) in [16] and 11.6 µM (≈ 5.48 µg/mL) in series [23].

As for `O=C(Cc1ccc(-c2ccc(OCc3ccc(Cl)cc3)nc2)cc1)N1CCC[C@H]1CO`, the IC50 at 48 h in [1] is over 100 µM. Also, the IC50 in series [2] came out at 53.4 µM; in [3], 57.4 µM; in series [4] it was 27.2 µM; in series [5] it was 49.1 µM.

In turn, `CCCCCCCCc1ccc(CC[C@](N)(CO)COC)cc1` came in with a Ki in series [28] of 50 µM.

With `NC(=O)[C@@H]1CCCN1C(=O)Cc1ccc(-c2ccc(OCc3ccc(Cl)cc3)nc2)cc1`, in series [1], the IC50 at 48 h was over 100 µM. Besides, the IC50 in series [2] stood at 25.4 µM; in series [3], 40.5 µM; in series [4] it was 34.4 µM; in [5], 27.2 µM.

For the origin of these results see ChEMBL document CHEMBL6127008, “Discovery and biological evaluation of biaryl acetamide derivatives as selective and in vivo active sphingosine kinase-2 inhibitors” (Eur J Med Chem, 2024).
